Data from article PMC11129975, “A first-in-human phase I study of TAS-117, an allosteric AKT inhibitor, in patients with advanced solid tumors” (Cancer Chemotherapy and Pharmacology, 2024).

Assay: Phase I safety: adverse events, adverse drug reactions, DLTs in patients with advanced solid tumors
Type: in vivo, human
Source text: This was a phase I, open-label, non-randomized, dose-escalating first-in-human study to evaluate the safety, pharmacokinetics, antitumor activity, pharmacodynamics, and pharmacogenomics of TAS-117 in patients with advanced solid tumors. The study had three phases: a dose escalation phase (DEP), a regimen modification phase (RMP), and a safety assessment phase (SAP). The treatment cycle on each regimen lasted 21 days. The DEP used an accelerated titration and 3 + 3 design. TAS-117 was administered orally once daily (QD) on an empty stomach (1 h before or 2 h after a meal). Dosing was determined based on a 4-week repeated oral-dose toxicology study in monkeys (data on file, Taiho Pharmaceutical Co., Ltd.); the highest non-severely toxic dose was 1.2 mg/kg/day, which was converted to 3.84 mg/body/day, or 2.4 mg/m^2. Therefore, the starting dose was determined to be ≤ 2.4 mg/m^2. At dose level 1, TAS-117 was administered at 2 mg QD (Day − 2), and the dose was increased to 4 mg QD after 2 days (Day 1). The RMP was conducted according to a 3 + 3 design. During this phase, the dose regimen was changed from QD administration to intermittent dosing of daily TAS-117 with 4 days on/3 days off. TAS-117 was administered on an empty stomach. Dose-limiting toxicities (DLTs) were evaluated in Cycle 1 of the DEP and RMP. […] The RD and regimen for the SAP were determined based on the safety, pharmacokinetics, pharmacodynamics, and antitumor activity profile determined in the DEP and RMP. During the SAP, the safety and preliminary efficacy profiles of TAS-117 were assessed at the RD and recommended regimen. Three cohorts were included in this assessment. Cohort 1 included patients with endometrial cancer with a PIK3CA mutation; cohort 2 included patients with endometrial cancer with an AKT1 mutation, AKT1 amplification, or AKT2 amplification; and cohort 3 included patients with ovarian clear cell carcinoma.
The primary endpoints were the proportion of patients who experienced DLTs in Cycle 1 of the DEP and RMP and the incidence of adverse events (AEs) and adverse drug reactions (ADRs) in the SAP. AEs and ADRs were coded using the Medical Dictionary for Regulatory Activities (MedDRA; version 24.1) and graded according to the National Cancer Institute Common Terminology Criteria for Adverse Events (CTCAE; version 4.03). Secondary endpoints were pharmacokinetic findings, changes in the ratio of phosphorylated PRAS40 (pPRAS40)/total PRAS40 from baseline, efficacy, and pharmacogenomics findings.

C[C@]1(O)C[C@@](N)(c2ccc(-c3nc4n(c3-c3ccccc3)COc3ccncc3-4)cc2)C1 [TAS-117]
Adverse drug reactions: Blood AP increased (Total N = 65, All grade): 7 (10.8) n (%) | Adverse drug reactions: Decreased appetite (Total N = 65, All grade): 10 (15.4) n (%) | Adverse drug reactions: Diarrhea (Total N = 65, All grade): 8 (12.3) n (%) | Adverse drug reactions: Dry skin (Total N = 65, All grade): 8 (12.3) n (%) | Adverse drug reactions: GGT increased (Total N = 65, All grade): 8 (12.3) n (%) | Adverse drug reactions: GI disorders (Total N = 65, All grade): 41 (63.1) n (%) | Adverse drug reactions: General disorders and administration site conditions (Total N = 65, All grade): 27 (41.5) n (%) | Adverse drug reactions: Hyperglycemia (Total N = 65, All grade): 30 (46.2) n (%) | Adverse drug reactions: Investigations (Total N = 65, All grade): 39 (60.0) n (%) | Adverse drug reactions: Metabolism and nutrition disorders (Total N = 65, All grade): 36 (55.4) n (%) | Adverse drug reactions: Nausea (Total N = 65, All grade): 16 (24.6) n (%) | Adverse drug reactions: Neutrophil count decreased (Total N = 65, All grade): 21 (32.3) n (%) | Adverse drug reactions: Pruritus (Total N = 65, All grade): 13 (20.0) n (%) | Adverse drug reactions: Pyrexia (Total N = 65, All grade): 17 (26.2) n (%) | Adverse drug reactions: Rash maculo-papular (Total N = 65, All grade): 58 (89.2) n (%) | Adverse drug reactions: Skin and SC tissue disorders (Total N = 65, All grade): 61 (93.8) n (%) | Adverse drug reactions: Stomatitis (Total N = 65, All grade): 37 (56.9) n (%) | Adverse drug reactions: Vomiting (Total N = 65, All grade): 7 (10.8) n (%) | Adverse drug reactions: WBC count decreased (Total N = 65, All grade): 25 (38.5) n (%) | Adverse events: ALT increased (Total N = 65, All grade): 12 (18.5) n (%) | Adverse events: AST increased (Total N = 65, All grade): 13 (20.0) n (%) | Adverse events: Any events (Total N = 65, All grade): 64 (98.5) n (%) | Adverse events: Blood AP increased (Total N = 65, All grade): 8 (12.3) n (%) | Adverse events: Decreased appetite (Total N = 65, All grade): 19 (29.2) n (%) | Adverse events: Diarrhea (Total N = 65, All grade): 15 (23.1) n (%) | Adverse events: Dry skin (Total N = 65, All grade): 11 (16.9) n (%) | Adverse events: GGT increased (Total N = 65, All grade): 11 (16.9) n (%) | Adverse events: GI disorders (Total N = 65, All grade): 51 (78.5) n (%) | Adverse events: General disorders and administration site conditions (Total N = 65, All grade): 39 (60.0) n (%) | Adverse events: Hyperglycemia (Total N = 65, All grade): 30 (46.2) n (%) | Adverse events: Investigations (Total N = 65, All grade): 42 (64.6) n (%) | Adverse events: Metabolism and nutrition disorders (Total N = 65, All grade): 44 (67.7) n (%) | Adverse events: Nausea (Total N = 65, All grade): 21 (32.3) n (%) | Adverse events: Neutrophil count decreased (Total N = 65, All grade): 21 (32.3) n (%) | Adverse events: Pruritus (Total N = 65, All grade): 13 (20.0) n (%) | Adverse events: Pyrexia (Total N = 65, All grade): 24 (36.9) n (%) | Adverse events: Rash maculo-papular (Total N = 65, All grade): 58 (89.2) n (%) | Adverse events: Skin and SC tissue disorders (Total N = 65, All grade): 61 (93.8) n (%) | Adverse events: Stomatitis (Total N = 65, All grade): 38 (58.5) n (%) | Adverse events: Vomiting (Total N = 65, All grade): 13 (20.0) n (%) | Adverse events: WBC count decreased (Total N = 65, All grade): 25 (38.5) n (%) | Adverse drug reactions: ALT increased (Total N = 65, ≥ Grade 3): 2 (3.1) n (%) | Adverse drug reactions: AST increased (Total N = 65, ≥ Grade 3): 0 (0.0) n (%) | Adverse drug reactions: Any events (Total N = 65, ≥ Grade 3): 39 (60.0) n (%) | Adverse drug reactions: Blood AP increased (Total N = 65, ≥ Grade 3): 0 (0.0) n (%) | Adverse drug reactions: Decreased appetite (Total N = 65, ≥ Grade 3): 0 (0.0) n (%) | Adverse drug reactions: Diarrhea (Total N = 65, ≥ Grade 3): 0 (0.0) n (%) | Adverse drug reactions: Dry skin (Total N = 65, ≥ Grade 3): 0 (0.0) n (%) | Adverse drug reactions: GGT increased (Total N = 65, ≥ Grade 3): 5 (7.7) n (%) | Adverse drug reactions: GI disorders (Total N = 65, ≥ Grade 3): 1 (1.5) n (%) | Adverse drug reactions: General disorders and administration site conditions (Total N = 65, ≥ Grade 3): 0 (0.0) n (%) | Adverse drug reactions: Hyperglycemia (Total N = 65, ≥ Grade 3): 11 (16.9) n (%) | Adverse drug reactions: Investigations (Total N = 65, ≥ Grade 3): 20 (30.8) n (%) | Adverse drug reactions: Metabolism and nutrition disorders (Total N = 65, ≥ Grade 3): 11 (16.9) n (%) | Adverse drug reactions: Nausea (Total N = 65, ≥ Grade 3): 0 (0.0) n (%) | Adverse drug reactions: Neutrophil count decreased (Total N = 65, ≥ Grade 3): 9 (13.8) n (%) | Adverse drug reactions: Pruritus (Total N = 65, ≥ Grade 3): 0 (0.0) n (%) | Adverse drug reactions: Pyrexia (Total N = 65, ≥ Grade 3): 0 (0.0) n (%) | Adverse drug reactions: Rash maculo-papular (Total N = 65, ≥ Grade 3): 23 (35.4) n (%) | Adverse drug reactions: Skin and SC tissue disorders (Total N = 65, ≥ Grade 3): 24 (36.9) n (%) | Adverse drug reactions: Stomatitis (Total N = 65, ≥ Grade 3): 1 (1.5) n (%) | Adverse drug reactions: Vomiting (Total N = 65, ≥ Grade 3): 0 (0.0) n (%) | Adverse drug reactions: WBC count decreased (Total N = 65, ≥ Grade 3): 8 (12.3) n (%) | Adverse events: ALT increased (Total N = 65, ≥ Grade 3): 2 (3.1) n (%) | Adverse events: AST increased (Total N = 65, ≥ Grade 3): 1 (1.5) n (%) | Adverse events: Any events (Total N = 65, ≥ Grade 3): 44 (67.7) n (%) | Adverse events: Blood AP increased (Total N = 65, ≥ Grade 3): 1 (1.5) n (%) | Adverse events: Decreased appetite (Total N = 65, ≥ Grade 3): 1 (1.5) n (%) | Adverse events: Diarrhea (Total N = 65, ≥ Grade 3): 1 (1.5) n (%) | Adverse events: Dry skin (Total N = 65, ≥ Grade 3): 0 (0.0) n (%) | Adverse events: GGT increased (Total N = 65, ≥ Grade 3): 8 (12.3) n (%) | Adverse events: GI disorders (Total N = 65, ≥ Grade 3): 4 (6.2) n (%) | Adverse events: General disorders and administration site conditions (Total N = 65, ≥ Grade 3): 0 (0.0) n (%) | Adverse events: Hyperglycemia (Total N = 65, ≥ Grade 3): 11 (16.9) n (%) | Adverse events: Investigations (Total N = 65, ≥ Grade 3): 24 (36.9) n (%) | Adverse events: Metabolism and nutrition disorders (Total N = 65, ≥ Grade 3): 13 (20.0) n (%) | Adverse events: Nausea (Total N = 65, ≥ Grade 3): 0 (0.0) n (%) | Adverse events: Neutrophil count decreased (Total N = 65, ≥ Grade 3): 9 (13.8) n (%) | Adverse events: Pruritus (Total N = 65, ≥ Grade 3): 0 (0.0) n (%) | Adverse events: Pyrexia (Total N = 65, ≥ Grade 3): 0 (0.0) n (%) | Adverse events: Rash maculo-papular (Total N = 65, ≥ Grade 3): 23 (35.4) n (%) | Adverse events: Skin and SC tissue disorders (Total N = 65, ≥ Grade 3): 24 (36.9) n (%) | Adverse events: Stomatitis (Total N = 65, ≥ Grade 3): 1 (1.5) n (%) | Adverse events: Vomiting (Total N = 65, ≥ Grade 3): 0 (0.0) n (%) | Adverse events: WBC count decreased (Total N = 65, ≥ Grade 3): 8 (12.3) n (%) | Patients who developed AEs related to skin disorders (all treated patients): 93.8% | Patients with maculopapular rash (all treated patients): 89.2% | Patients who discontinued because of AEs (dose level 4 (24 mg intermittent administration)): four patients | Recommended dose (RD) (intermittent dosing (4 days on/3 days off)): 24 mg | Tolerability (once daily up to 16 mg/day and intermittent dosing of 24 mg/day): well tolerated | Maculopapular rash grade ≥ 3 (printed as % of patients with this AE): 35.4%
